Reference: US9504729B2, “Antiangiogenic small molecules and methods of use” (The United States of America, as represented by the …, priority 2009, dated 2016)

System: angiogenesis genes in dermal microvascular endothelial cells
Test: Real time RT-PCR of angiogenesis gene expression during endothelial tube formation
Type: cell-based
Conditions: 1 μM SM, 24 hours
Description: For gene expression studies, three independent experiments were run for each SM tested. 90.000 cells/well (6 wells/treatment) of dermal microvascular endothelial cells (Lonza, Walkersville, Md.) were seeded on polymerized GELTREX™ gel matrix (Invitrogen, Carlsbad, Calif.) in 24 well plates. Wells were immediately treated with the same volume of 1 μM SM or PBS. After 24 hours incubation at 37° C. and 5% CO2, cells were extracted using Cell Recovery Solution (BD Biosciences, San Jose, Calif., Cat. #354253). Total RNA was extracted with the RNeasy Mini Kit (Qiagen, Valencia, Calif., Cat. #74104), and retrotranscribed using […]® First-Strand reverse transcriptase (Invitrogen, Carlsbad, Calif., Cat. #11904-018). The real time PCR reactions were performed in an Opticon 2 cycler (MJ Research, Waltham, Mass.). Amplification was performed in a final volume of 25 μl, containing 2 μl cDNA (1:10 dilution from the reversed transcribed reaction) and 2 μl of primer mixture (10 μM each of forward and reverse primers). Samples were amplified as follows: after initial denaturation at 95 C for 2 minutes, reactions were run for 46 cycles at 95° C. for 30 seconds, 60° C. for 30 seconds, and 72° C. for 45 seconds. Fluorescence was measured in every cycle and a melting curve was run after the PCR by increasing temperature from 50 to 96° C. (in 0.5° C. increments). A defined single peak was obtained for all amplicons, thus confirming the specificity of the amplification.
The genes that were monitored were selected based on their relevance to the angiogenesis process. All experiments were done in triplicate. The results are shown in the volcano plots of FIG. 17. Log 2 fold-change is presented in the X-axis and log 10 P value in the Y-axis.

O=C1C(=Cc2ccccc2)C(NC2CCCCC2)c2ccccc21 (centres unmarked) [compound 150117]
Log2 fold-change of gene expression: 1839: 0.9
Log2 fold-change of gene expression: 4247: −0.1
Log2 fold-change of gene expression: 5569: −0.1
Log2 fold-change of gene expression: 8131: −0.5
Log2 fold-change of gene expression: 9569: −4.2
Log2 fold-change of gene expression: 10988: 0.8
Log2 fold-change of gene expression: 23001: −1.0
Log2 fold-change of gene expression: 55332: −1.7
Log2 fold-change of gene expression: 57722: −0.9
Log2 fold-change of gene expression: 58488: 0.3
Log2 fold-change of gene expression: 90780: −1.4
Log2 fold-change of gene expression: 134265: −1.0
Log2 fold-change of gene expression: AKT1: 1.6
Log2 fold-change of gene expression: ANGPT1: 1.7
Log2 fold-change of gene expression: ANGPT2: −1.2
Log2 fold-change of gene expression: ANGPTL3: 1.8
Log2 fold-change of gene expression: ANGPTL4: −4.0
Log2 fold-change of gene expression: ANPEP: −1.7
Log2 fold-change of gene expression: ANTXR1: −4.2
Log2 fold-change of gene expression: APOE: −1.0
Log2 fold-change of gene expression: ARHGEF1: −2.0
Log2 fold-change of gene expression: Acvrl1: −1.2
Log2 fold-change of gene expression: Adcy4: −0.5
Log2 fold-change of gene expression: BAL1: 0.8
Log2 fold-change of gene expression: BMP1: −0.4
Log2 fold-change of gene expression: C1orf54: −1.3
Log2 fold-change of gene expression: CALD1: 1.1
Log2 fold-change of gene expression: CCL2: 0.9
Log2 fold-change of gene expression: CCL11: 0.7
Log2 fold-change of gene expression: CD248: −0.4
Log2 fold-change of gene expression: CDH5: −1.6
Log2 fold-change of gene expression: CENTD3: −0.2
Log2 fold-change of gene expression: CLIC1: 0.0
Log2 fold-change of gene expression: COL4A3: 2.4
Log2 fold-change of gene expression: COL18A1: 0.8
Log2 fold-change of gene expression: COMT: −1.0
Log2 fold-change of gene expression: CST4: −0.1
Log2 fold-change of gene expression: CTTNBP2NL: −2.3
Log2 fold-change of gene expression: CXCL3: 0.8
Log2 fold-change of gene expression: CXCL5: −3.5
Log2 fold-change of gene expression: CXCL6: 1.2
Log2 fold-change of gene expression: CXCL9: 1.2
Log2 fold-change of gene expression: CXCL10: −1.7
Log2 fold-change of gene expression: Calcr1: −5.4
Log2 fold-change of gene expression: Caskin2: −2.7
Log2 fold-change of gene expression: Ccbp2: 0.4
Log2 fold-change of gene expression: Cldn5: 0.1
Log2 fold-change of gene expression: DGKG: 3.4
Log2 fold-change of gene expression: DKK3: −3.3
Log2 fold-change of gene expression: DLL4: 5.5
Log2 fold-change of gene expression: DUT: −0.2
Log2 fold-change of gene expression: EFNA1: 0.4
Log2 fold-change of gene expression: EFNA3: −1.8
Log2 fold-change of gene expression: EFNB2: 0.4
Log2 fold-change of gene expression: EGF: −2.3
Log2 fold-change of gene expression: ENG: −0.1
Log2 fold-change of gene expression: EPHB4: −1.2
Log2 fold-change of gene expression: EREG: −2.4
Log2 fold-change of gene expression: ESAM1: −2.6
Log2 fold-change of gene expression: EXTL3: 0.0
Log2 fold-change of gene expression: Egf17: −3.3
Log2 fold-change of gene expression: Ehd4: −0.6
Log2 fold-change of gene expression: Entpd1: −8.9
Log2 fold-change of gene expression: Epas1: 0.4
Log2 fold-change of gene expression: EphB1: 0.7
Log2 fold-change of gene expression: Erg: −3.2
Log2 fold-change of gene expression: FGF1: −3.8
Log2 fold-change of gene expression: FGF2: 0.0
Log2 fold-change of gene expression: FGFR3: 1.0
Log2 fold-change of gene expression: FIGF: 2.4
Log2 fold-change of gene expression: FLT1: −0.5
Log2 fold-change of gene expression: Fgd5: −1.2
Log2 fold-change of gene expression: GPCR124: −2.9
Log2 fold-change of gene expression: GRRP1: 0.0
Log2 fold-change of gene expression: Grp116: −3.1
Log2 fold-change of gene expression: HAND2: 1.5
Log2 fold-change of gene expression: HGF: 1.5
Log2 fold-change of gene expression: HIF1A: −1.8
Log2 fold-change of gene expression: HPSE: −0.2
Log2 fold-change of gene expression: Hspa12b: −3.5
Log2 fold-change of gene expression: ID1: 0.3
Log2 fold-change of gene expression: ID3: 0.5
Log2 fold-change of gene expression: IFNA1: 1.9
Log2 fold-change of gene expression: IFNB1: 2.1
Log2 fold-change of gene expression: IFNG: −1.9
Log2 fold-change of gene expression: IGF1: −0.2
Log2 fold-change of gene expression: IL1B: 9.5
Log2 fold-change of gene expression: IL6: 2.2
Log2 fold-change of gene expression: IL8: 6.0
Log2 fold-change of gene expression: ITGAV: −1.8
Log2 fold-change of gene expression: ITGB3: −1.4
Log2 fold-change of gene expression: Icam1: 0.6
Log2 fold-change of gene expression: Icam2: 0.0
Log2 fold-change of gene expression: JAG1: 0.3
Log2 fold-change of gene expression: KDR: −2.1
Log2 fold-change of gene expression: Kifc1: −0.1
Log2 fold-change of gene expression: LAMAS5: −2.2
Log2 fold-change of gene expression: LECT1: −0.2
Log2 fold-change of gene expression: LEP: −0.2
Log2 fold-change of gene expression: Lasts2: 0.3
Log2 fold-change of gene expression: Lrrk1: −1.8
Log2 fold-change of gene expression: MDK: −1.5
Log2 fold-change of gene expression: MMP2: −0.6
Log2 fold-change of gene expression: MMP9: −0.3
Log2 fold-change of gene expression: MMP11: −0.2
Log2 fold-change of gene expression: MRC2: −0.7
Log2 fold-change of gene expression: Mmm2: −3.4
Log2 fold-change of gene expression: Myo1b: −2.7
Log2 fold-change of gene expression: NID1: −5.2
Log2 fold-change of gene expression: NM023516: 0.6
Log2 fold-change of gene expression: NRP1: −2.0
Log2 fold-change of gene expression: NRP2: −3.2
Log2 fold-change of gene expression: Notch4: −0.7
Log2 fold-change of gene expression: Npr3: 0.5
Log2 fold-change of gene expression: PALD: −1.7
Log2 fold-change of gene expression: PDCD2: −0.9
Log2 fold-change of gene expression: PDGFA: −0.9
Log2 fold-change of gene expression: PECAM1: −2.5
Log2 fold-change of gene expression: PGF: −1.6
Log2 fold-change of gene expression: PLAU: 0.0
Log2 fold-change of gene expression: PLG: −3.9
Log2 fold-change of gene expression: PNMT: −0.4
Log2 fold-change of gene expression: PROK2: 0.7
Log2 fold-change of gene expression: PTGS1: 0.3
Log2 fold-change of gene expression: PTPRCAP: 0.2
Log2 fold-change of gene expression: Pltp: 0.9
Log2 fold-change of gene expression: Ptprb: −2.6
Log2 fold-change of gene expression: Ptprm: −1.4
Log2 fold-change of gene expression: RAMP2: −4.4
Log2 fold-change of gene expression: RASD2: −0.1
Log2 fold-change of gene expression: Rasip1: −1.7
Log2 fold-change of gene expression: S1PR1: −1.9
Log2 fold-change of gene expression: SERPINF1: 1.5
Log2 fold-change of gene expression: SPHK1: 1.2
Log2 fold-change of gene expression: STAB1: −0.9
Log2 fold-change of gene expression: Sdc4: 0.2
Log2 fold-change of gene expression: Sdpr: 0.0
Log2 fold-change of gene expression: Slc43a3: 0.0
Log2 fold-change of gene expression: Slco2a1: −2.9
Log2 fold-change of gene expression: TEK: 0.7
Log2 fold-change of gene expression: TGFA: 5.3
Log2 fold-change of gene expression: TGFB1: −1.3
Log2 fold-change of gene expression: TGFB2: 1.6
Log2 fold-change of gene expression: TGFBR1: 1.2
Log2 fold-change of gene expression: THBS1: −0.6
Log2 fold-change of gene expression: THBS2: 0.9
Log2 fold-change of gene expression: THY1: −12.7
Log2 fold-change of gene expression: TIMP1: −0.7
Log2 fold-change of gene expression: TIMP2: −0.8
Log2 fold-change of gene expression: TIMP3: −2.7
Log2 fold-change of gene expression: TNF: 2.4
Log2 fold-change of gene expression: TNS1: −0.9
Log2 fold-change of gene expression: TNS3: 0.6
Log2 fold-change of gene expression: TRA2B: −0.2
Log2 fold-change of gene expression: TYMP: −1.1
Log2 fold-change of gene expression: VEGFA: −0.3
Log2 fold-change of gene expression: VEGFC: 2.0
Log2 fold-change of gene expression: VGLL4: −3.5
Log2 fold-change of gene expression: Vwf: −3.7
Log2 fold-change of gene expression: copa: 0.0
Log2 fold-change of gene expression: itbp4: −2.5
Log2 fold-change of gene expression: ralb: −0.7
Log2 fold-change of gene expression: stard9: 0.1
Log2 fold-change of gene expression: B2M (1st listing (r49)): 2.8
Log2 fold-change of gene expression: HPRT1 (1st listing (r50)): −0.4
Log2 fold-change of gene expression: RPL13A (1st listing (r51)): −0.8
Log2 fold-change of gene expression: GADPH (1st listing (r52)): −1.3
Log2 fold-change of gene expression: ACTB (1st listing (r53)): −0.9
Log2 fold-change of gene expression: PLXDC1 (1st listing (r74)): −3.2
Log2 fold-change of gene expression: TNFAIP2 (1st listing (r91)): −0.6
Log2 fold-change of gene expression: Robo4 (1st listing (r95)): −0.2
Log2 fold-change of gene expression: 151516 (1st listing (r134)): 0.0
Log2 fold-change of gene expression: TNFAIP2 (2nd listing (r92)): 2.7
Log2 fold-change of gene expression: B2M (2nd listing (r97)): −1.2
Log2 fold-change of gene expression: HPRT1 (2nd listing (r98)): 0.6
Log2 fold-change of gene expression: RPL13A (2nd listing (r99)): 0.1
Log2 fold-change of gene expression: GADPH (2nd listing (r100)): −0.1
Log2 fold-change of gene expression: ACTB (2nd listing (r101)): −0.6
Log2 fold-change of gene expression: PLXDC1 (2nd listing (r104)): −0.6
Log2 fold-change of gene expression: 151516 (2nd listing (r139)): 0.0
Log2 fold-change of gene expression: Robo4 (2nd listing (r188)): −0.3
Log2 fold-change of gene expression: B2M (3rd listing (r145)): −0.7
Log2 fold-change of gene expression: HPRT1 (3rd listing (r146)): 1.1
Log2 fold-change of gene expression: RPL13A (3rd listing (r147)): 0.6
Log2 fold-change of gene expression: GADPH (3rd listing (r148)): −0.5
Log2 fold-change of gene expression: ACTB (3rd listing (r149)): −0.5
Log2 fold-change of gene expression: B2M (4th listing (r193)): −0.8
Log2 fold-change of gene expression: HPRT1 (4th listing (r194)): 0.4
Log2 fold-change of gene expression: RPL13A (4th listing (r195)): 0.2
Log2 fold-change of gene expression: GADPH (4th listing (r196)): −0.5
Log2 fold-change of gene expression: ACTB (4th listing (r197)): −0.2
